Test results as given in article PMC9776540, “Therapeutic Potential of a Water-Soluble Silver-Diclofenac Coordination Polymer on 3D Pancreatic Cancer Spheroids” (Journal of Medicinal Chemistry, 2022).

Assays:
[1] = tested on: PANC-1; assay: MTT cytotoxicity assay (IC50); type: cell-based, human; conditions: Homo sapiens, PANC-1, 72 h
Experimental: (§1) MCF7 cell line (human breast adenocarcinoma, morphology: epithelial-like, ATCC: HTB-22), A549 cell […]
(§2) keratinocyte, morphology: epidermal, CSL Cell Lines Service GmbH); were cultured in Dulbecco’s Modified Eagle’s Medium (DMEM, Corning) with phenol red, supplemented with 10% fetal bovine serum (FBS) and with 1% streptomycin/penicillin. […]
(§3) from metastatic site: brain, ATCC: HTB-81) and MCR-5 cell line (primary line of human pulmonary […]
(§4) 10% fetal bovine serum (FBS). Cultures were incubated at 37 °C under a humidified atmosphere containing 5% CO2. Cells were transferred using a solution containing 0.05% trypsin and 0.5 mM EDTA.
(§5) All media and other ingredients were purchased from ALAB, Poland.
(§6) Cytotoxicity was assessed by MTT assay performed according the protocols described elsewhere.S1 In brief, 1×10^4 cells per well, seeded in 96-well flat bottom microtiter plate, were incubated with the tested compounds (in the appropriate media) at various range of concentrations for 24 h. After that time, solutions of compounds were washed out, cells were washed three times with PBS and fresh medium was applied. After next 72 h cell viability was determined using the Hill equation (Origin 9.0) with regard to the untreated cells (control), where y0 – untreated cell control (which was set to 100% viability), y100 – a lysis control (where the cells were treated with 0.5% triton X-100 was set to 0% […]
(§7) [c] at which the viability of the cells reaches 50%, H – the Hill coefficient (describing cooperativity):
(§8) Each compound concentration was tested in five replicates and repeated at least three times.
(§9) Determined values of IC50 are given as mean + S.D. (Standard Deviation).
(§10) Cisplatin was tested as a reference anticancer drug. […]

[2] = tested on: MCF7; assay: MTT cytotoxicity assay (IC50); type: cell-based, human; conditions: Homo sapiens, MCF7, 72 h
Experimental: as §1, §2, §3, §4, §5, §6, §7, §8, §9, §10

[3] = tested on: A549; assay: MTT cytotoxicity assay (IC50); type: cell-based, human; conditions: Homo sapiens, A549, 72 h
Experimental: as §1, §2, §3, §4, §5, §6, §7, §8, §9, §10

[4] = tested on: MRC5; assay: MTT cytotoxicity assay (IC50); type: cell-based, human; conditions: Homo sapiens, MRC5, 72 h
Experimental: as §1, §2, §3, §4, §5, §6, §7, §8, §9, §10

[5] = tested on: DU-145; assay: MTT cytotoxicity assay (IC50); type: cell-based, human; conditions: Homo sapiens, DU-145, 72 h
Experimental: as §1, §2, §3, §4, §5, §6, §7, §8, §9, §10

[6] = tested on: HaCat; assay: MTT cytotoxicity assay (IC50); type: cell-based, human; conditions: Homo sapiens, HaCaT, 72 h
Experimental: as §1, §2, §3, §4, §5, §6, §7, §8, §9, §10

[7] = tested on: PANC-1 cells; conditions: PANC-1, 1 at IC50, others at molar ratio 1:1:1, 72 h after treatment
Experimental: as §1, §2, §3, §4
All media and other ingredients were purchased from ALAB, Poland. […]
Acridine Orange (OA) and Propidium Iodide PI Staining
AO is a nucleic acid-binding fluorophore that is cell membrane permeable and suitable for selective staining of nucleated living cells. PI is a nucleic acid-binding dye that is impermeable to live cells and suitable for staining dead or dying nucleated cells. All live, nucleated cells fluoresce green due to AO, and dead, nucleated cells are stained with both AO and PI and fluoresce red. For analysis of 1-induced

[8] = tested on: PANC-1 cells; assay: Mitochondrial membrane potential, JC-10 assay; type: cell-based, human; conditions: PANC-1, 4 h, 1 at IC50, others at molar ratio 1:1:1
Experimental: As an important indicator of mitochondrial dysfunction, the variation in mitochondrial membrane potential was monitored by the JC-10 probe (Figure 6C) aiming to understand the importance of mitochondrial disorder during the cancer cell death induced by 1.
Detection of Mitochondrial Membrane Potential (Δψ)
Mitochondrial membrane potential (MMP) depletion was determined by JC-10 Assay (Life
Technologies, USA). […] After 24h
ciprofloxacin (10 µg/mL) as positive and negative control, respectively. After that, cells were incubated
for 4 h at standard condition (37 °C, 5% CO2). Then, they were washed twice with PBS buffer and
incubated with JC-10 for 1 h. Afterwards, emission was measured at two different excitation
wavelengths ( exc = 540 nm,  em = 570 nm) and ( exc = 485 nm,  em = 530 nm). Results are presented as
the intensity ratio of red to green emission (mean + S.D.).

[9] = tested on: PANC-1; assay: MTT survival test, surviving fraction (Table S3); type: cell-based, human
Experimental: (§11) 24, and 72 h. After each incubation time, the cells were washed with PBS. Then, fresh medium (supplemented with 10% FSB) was added, and the cells were incubated under standard conditions for another 24 h (6h + 24h, 24h + 24h, 72h + 24h). After this time, the MTT survival test was done. Surviving fraction given in % was estimated with relation to untreated cells. In the case of 6h + 24h and 24h + 24h approaches, the cells were seeded at 10 000 cells per well, while in the case of 72h + 24h at […]

[10] = tested on: A549; assay: MTT survival test, surviving fraction (Table S3); type: cell-based, human
Experimental: as §11

[11] = tested on: DU-145; assay: MTT survival test, surviving fraction (Table S3); type: cell-based, human
Experimental: as §11

[12] = tested on: MCF-7; assay: MTT survival test, surviving fraction (Table S3); type: cell-based, human
Experimental: as §11

[13] = tested on: HaCat; assay: MTT survival test, surviving fraction (Table S3); type: cell-based, human
Experimental: as §11

[14] = tested on: pBR322 plasmid; assay: DNA strand break analysis, agarose gel electrophoresis; type: biochemical; conditions: pBR322, 24 h, even at high concentration (500 μM)
Experimental: Then, the interaction between DNA and diclofenac, PTA, or 1 was evaluated by the gel electrophoresis of pBR322 plasmid to determine an ability to cause double- and/or single-strand DNA damages (Figure 6D). The double-strand damage may result in the appearance of different forms of DNA (linear form III and relaxed form II), which can be quantified by densitometry analysis (Figure 6E).
DNA Strand Break Analysis
The ability of 1, PTA and diclofenac to induce single- or double-strand breaks in plasmid DNA was tested
with the pBR322 plasmid (c = 0.5 mg/mL). All compounds were dissolved in water (c = 1 µM-500 µM).
After 1 h incubation at 37 °C, the reaction mixtures (20 μL) were mixed with 3 μL of loading buffer
(bromophenol blue in 30% glycerol) and loaded on 1% agarose gels, containing EB, in TBE buffer (90
mM Tris–borate, 20 mM EDTA, pH = 8.0). Gel electrophoresis was performed at a constant voltage of
100 V (4 V/cm) for 60 min. The gel was photographed and processed with a Digital Imaging System
(Syngen Biotech). For the densitometric analysis the UltraQuant 6.0 program was used.

C1N2CN3CN1CP(C2)C3 [PTA, 1,3,5-triaza-7-phosphaadamantane]
IC50 [1]: 1290 ± 52.6 µM | IC50 [2]: 1471 ± 14.4 µM | IC50 [3]: 1170 ± 14.7 µM | IC50 [4]: 867 ± 18.3 µM | IC50 [5]: 1230 ± 21.9 µM | IC50 [6]: 826 ± 8.76 µM | cytotoxicity seen by AO/PI staining [7]: did not induce visible cytotoxicity | change of mitochondrial membrane potential (570/530 nm ratio of JC-10 fluorescence intensity) [8]: significant decrease | surviving fraction ([9]; PANC-1, 6h + 24h, dil. 10 000x (stocks: diclofenac 0.918, PTA 0.483, AgNO3 0.326 mg/mL)): 89.7 ± 12.5% | surviving fraction ([9]; PANC-1, 6h + 24h, dil. 100x (stocks: diclofenac 0.918, PTA 0.483, AgNO3 0.326 mg/mL)): 74.7 ± 9.8% | surviving fraction ([9]; PANC-1, 6h + 24h, dil. 1000x (stocks: diclofenac 0.918, PTA 0.483, AgNO3 0.326 mg/mL)): 86.5 ± 6.4% | surviving fraction ([9]; PANC-1, 24h + 24h, dil. 10 000x (stocks: diclofenac 0.918, PTA 0.483, AgNO3 0.326 mg/mL)): 107.5 ± 6.8% | surviving fraction ([9]; PANC-1, 24h + 24h, dil. 100x (stocks: diclofenac 0.918, PTA 0.483, AgNO3 0.326 mg/mL)): 78.7 ± 8.3% | surviving fraction ([9]; PANC-1, 24h + 24h, dil. 1000x (stocks: diclofenac 0.918, PTA 0.483, AgNO3 0.326 mg/mL)): 85.2 ± 9.5% | surviving fraction ([9]; PANC-1, 72h + 24h, dil. 10 000x (stocks: diclofenac 0.918, PTA 0.483, AgNO3 0.326 mg/mL)): 98.9 ± 8.9% | surviving fraction ([9]; PANC-1, 72h + 24h, dil. 100x (stocks: diclofenac 0.918, PTA 0.483, AgNO3 0.326 mg/mL)): 70.8 ± 6.7% | surviving fraction ([9]; PANC-1, 72h + 24h, dil. 1000x (stocks: diclofenac 0.918, PTA 0.483, AgNO3 0.326 mg/mL)): 83.4 ± 5.1% | surviving fraction ([10]; A549, 6h + 24h, dil. 10 000x (stocks: diclofenac 0.918, PTA 0.483, AgNO3 0.326 mg/mL)): 96.8 ± 10.8% | surviving fraction ([10]; A549, 6h + 24h, dil. 100x (stocks: diclofenac 0.918, PTA 0.483, AgNO3 0.326 mg/mL)): 77.5 ± 9.8% | surviving fraction ([10]; A549, 6h + 24h, dil. 1000x (stocks: diclofenac 0.918, PTA 0.483, AgNO3 0.326 mg/mL)): 82.4 ± 12.9% | surviving fraction ([10]; A549, 24h + 24h, dil. 10 000x (stocks: diclofenac 0.918, PTA 0.483, AgNO3 0.326 mg/mL)): 98.6 ± 5.9% | surviving fraction ([10]; A549, 24h + 24h, dil. 100x (stocks: diclofenac 0.918, PTA 0.483, AgNO3 0.326 mg/mL)): 77.2 ± 12.8% | surviving fraction ([10]; A549, 24h + 24h, dil. 1000x (stocks: diclofenac 0.918, PTA 0.483, AgNO3 0.326 mg/mL)): 88.2 ± 8.7% | surviving fraction ([10]; A549, 72h + 24h, dil. 10 000x (stocks: diclofenac 0.918, PTA 0.483, AgNO3 0.326 mg/mL)): 92.7 ± 8.6% | surviving fraction ([10]; A549, 72h + 24h, dil. 100x (stocks: diclofenac 0.918, PTA 0.483, AgNO3 0.326 mg/mL)): 67.3 ± 8.6% | surviving fraction ([10]; A549, 72h + 24h, dil. 1000x (stocks: diclofenac 0.918, PTA 0.483, AgNO3 0.326 mg/mL)): 79.8 ± 7.5% | surviving fraction ([11]; Du-145, 6h + 24h, dil. 10 000x (stocks: diclofenac 0.918, PTA 0.483, AgNO3 0.326 mg/mL)): 106.9 ± 9.2% | surviving fraction ([11]; Du-145, 6h + 24h, dil. 100x (stocks: diclofenac 0.918, PTA 0.483, AgNO3 0.326 mg/mL)): 78.4 ± 11.8% | surviving fraction ([11]; Du-145, 6h + 24h, dil. 1000x (stocks: diclofenac 0.918, PTA 0.483, AgNO3 0.326 mg/mL)): 89.3 ± 8.8% | surviving fraction ([11]; Du-145, 24h + 24h, dil. 10 000x (stocks: diclofenac 0.918, PTA 0.483, AgNO3 0.326 mg/mL)): 99.2 ± 7.2% | surviving fraction ([11]; Du-145, 24h + 24h, dil. 100x (stocks: diclofenac 0.918, PTA 0.483, AgNO3 0.326 mg/mL)): 73.8 ± 12.6% | surviving fraction ([11]; Du-145, 24h + 24h, dil. 1000x (stocks: diclofenac 0.918, PTA 0.483, AgNO3 0.326 mg/mL)): 89.2 ± 5.8% | surviving fraction ([11]; Du-145, 72h + 24h, dil. 10 000x (stocks: diclofenac 0.918, PTA 0.483, AgNO3 0.326 mg/mL)): 101.2 ± 12.4% | surviving fraction ([11]; Du-145, 72h + 24h, dil. 100x (stocks: diclofenac 0.918, PTA 0.483, AgNO3 0.326 mg/mL)): 62.3 ± 8.7% | surviving fraction ([11]; Du-145, 72h + 24h, dil. 1000x (stocks: diclofenac 0.918, PTA 0.483, AgNO3 0.326 mg/mL)): 84.2 ± 8.2% | surviving fraction ([12]; MCF-7, 6h + 24h, dil. 10 000x (stocks: diclofenac 0.918, PTA 0.483, AgNO3 0.326 mg/mL)): 88.6 ± 7.5% | surviving fraction ([12]; MCF-7, 6h + 24h, dil. 100x (stocks: diclofenac 0.918, PTA 0.483, AgNO3 0.326 mg/mL)): 78.6 ± 13.1% | surviving fraction ([12]; MCF-7, 6h + 24h, dil. 1000x (stocks: diclofenac 0.918, PTA 0.483, AgNO3 0.326 mg/mL)): 89.6 ± 4.8% | surviving fraction ([12]; MCF-7, 24h + 24h, dil. 10 000x (stocks: diclofenac 0.918, PTA 0.483, AgNO3 0.326 mg/mL)): 100.2 ± 6.6% | surviving fraction ([12]; MCF-7, 24h + 24h, dil. 100x (stocks: diclofenac 0.918, PTA 0.483, AgNO3 0.326 mg/mL)): 70.9 ± 8.8% | surviving fraction ([12]; MCF-7, 24h + 24h, dil. 1000x (stocks: diclofenac 0.918, PTA 0.483, AgNO3 0.326 mg/mL)): 82.7 ± 11.5% | surviving fraction ([12]; MCF-7, 72h + 24h, dil. 10 000x (stocks: diclofenac 0.918, PTA 0.483, AgNO3 0.326 mg/mL)): 102.5 ± 6.0% | surviving fraction ([12]; MCF-7, 72h + 24h, dil. 100x (stocks: diclofenac 0.918, PTA 0.483, AgNO3 0.326 mg/mL)): 84.7 ± 8.9% | surviving fraction ([12]; MCF-7, 72h + 24h, dil. 1000x (stocks: diclofenac 0.918, PTA 0.483, AgNO3 0.326 mg/mL)): 88.6 ± 7.9% | surviving fraction ([13]; 6h + 24h, dil. 10 000x (stocks: diclofenac 0.918, PTA 0.483, AgNO3 0.326 mg/mL)): 109.7 ± 6.3% | surviving fraction ([13]; 6h + 24h, dil. 100x (stocks: diclofenac 0.918, PTA 0.483, AgNO3 0.326 mg/mL)): 99.7 ± 4.9% | surviving fraction ([13]; 24h + 24h, dil. 10 000x (stocks: diclofenac 0.918, PTA 0.483, AgNO3 0.326 mg/mL)): 98.1 ± 12.1% | surviving fraction ([13]; 24h + 24h, dil. 100x (stocks: diclofenac 0.918, PTA 0.483, AgNO3 0.326 mg/mL)): 92.2 ± 5.3% | surviving fraction ([13]; 24h + 24h, dil. 1000x (stocks: diclofenac 0.918, PTA 0.483, AgNO3 0.326 mg/mL)): 96.7 ± 9.7% | surviving fraction ([13]; 72h + 24h, dil. 10 000x (stocks: diclofenac 0.918, PTA 0.483, AgNO3 0.326 mg/mL)): 100.6 ± 8.1% | surviving fraction ([13]; 72h + 24h, dil. 100x (stocks: diclofenac 0.918, PTA 0.483, AgNO3 0.326 mg/mL)): 91.2 ± 6.5% | surviving fraction ([13]; 72h + 24h, dil. 1000x (stocks: diclofenac 0.918, PTA 0.483, AgNO3 0.326 mg/mL)): 98.2 ± 8.4% | degradation of plasmid DNA [14]: no degradation of DNA
